Laboratory results: PMC11997985, “Synthesis and In Vitro Profiling of Psilocin Derivatives: Improved Stability and Synthetic Properties” (Journal of Medicinal Chemistry, 2025)

Tests used:
[1] = Solubility, screen method, phosphate buffer pH 7.4, 1% DMSO; assay type: physicochemical; details: phosphate buffer with 1% DMSO; 100 mM phosphate buffer pH 7.4, 1% DMSO; assay range 0.1 to 100 μM
[2] = Plasma stability in human plasma; assay type: in vitro ADME; details: for half-life at 1 μM / remaining at 12 s, 1 μM / remaining at 5 min, 1 μM / remaining at 10 min, 1 μM / remaining at 0.5 h, 1 μM / remaining at 1 h, 1 μM / remaining at 2 h, 1 μM / remaining at 4 h, 1 μM: human, pooled human plasma; for half-life at 1 μM: 37 °C, read-out: T ½ in human plasma; for remaining at 12 s, 1 μM: 0.2 min (first sample, reference); for remaining at 0.5 h, 1 μM: 30 min; for remaining at 1 h, 1 μM: 60 min; for remaining at 2 h, 1 μM: 120 min; for remaining at 4 h, 1 μM: 240 min; for degradation in human plasma: sampling at 5 min and later
Description: It should be noted that esterase-labile compounds are notoriously difficult to study in microsomal stability studies.[36]
(§1) Materials for experiments described in the supporting information (solubility) […]
(§2) Dimethylsulfoxide (DMSO) CHROMASOLV™ Plus, >99.7%
(§3) Acetonitrile (MeCN) LiChrosolv, hypergrade for LC-MS, Merck Chemicals
(§4) Formic acid (HCOOH) For LC-MS, Carlo-Erba
(§5) Water > 18MΩcm quality (Milli-Q, Millipore
(§6) Di-sodium-hydrogenphoshate dihydrate Merck
(§7) Sodium-dihydrogenphosphate monohydrate Merck
(§8) Autosampler Agilent 1260 Multisampler, G7167A
(§9) Gradient LC-pump Agilent 1260 Flexible Pump, G7104C
(§10) Analytical Flow 0.5 mL/min
(§11) Analytical column Luna® Omega 1.6 µm Polar C18 100Å, 50 x 2.1 mm
(§12) Injection volume 3.0 µL (15 µL for “high” injection of buffer sample) […]
(§13) Mobile phase A H2O/MeCN/Formic acid 95/5/0.1
(§14) Mobile phase B H2O/MeCN/Formic acid 5/95/0.1
(§15) Materials and analytical parameters for FT-ICR-MALDI-HRMS
(§16) The high-resolution mass spectrometry (HR-MS) experiments were performed using a MALDI-Fourier-transform ion cyclotron resonance (FTICR) (7T solariX XR-2ω, Bruker Daltonics) mass spectrometer equipped with a Smartbeam II 2 kHz laser. Briefly, a stock solution (1mg/ml) of the compound 5 was prepared and mixed 1:1 with a matrix solution containing DHB (40 mg/ml) in 50% ACN (0.02% TFA). 1 µl of the mixed solution was spotted onto MPTP MALDI target plate (Bruker Daltonics) and dried at room temperature. The instrument was tuned for optimal detection of small molecules (m/z 86–500) in positive polarity using the quadrature phase detection (QPD) (2ω) mode. The method was calibrated with red phosphorus over the mass range and DHB matrix ion [2M–2H2O+H]+ m/z 273.039364 was used as lock mass.
(§17) Incubation samples. 10 mM stock solutions of test compounds in DMSO were used to prepare 100 μM solutions by dilution in EtOH/water 25/75 (v/v). 6 μL of the 100 μM solution was spiked into 594 μL pre-warmed plasma at 37 °C giving a final concentration of 1 μM. The incubation tube was then mixed on a vortex. A sample (60 μL) was taken and added to an Eppendorf tube containing 180 μL acetonitrile. The tube was thoroughly mixed with a vortex. The precipitated sample was then treated with centrifugation (10.000 g, 10 minutes, 18 °C), 150 μL of the supernatant was mixed with 450 μL water directly into a LC-vial (glass). This step was repeated for every time point. The first time point was approximately taken 15-20 seconds after spiking.
(§18) Other timepoints were 5,10, 30, 60, 120, 240 minutes. Pre-precipitated samples. 594 μL of pre-warmed plasma was precipitated with 1800 μL ACN. 6 μL of the 100 μM solution was spiked into the precipitated plasma. 1 mL was removed and added to an Eppendorf tube. After a centrifugation step (10.000 g, 10 minutes, 18 °C), 150 μL of the supernatant was mixed with 450 μL water directly into a LC-vial (glass).
(§19) Metabolic stability in human microsomes
(§20) The assay was run at 37°C with a microsomal protein concentration of 0.5 mg/mL and a compound concentration of 1 μM in a 0.1 M potassium phosphate buffer at pH 7.4. The compounds were added to the microsome suspension whereafter the enzymatic reaction was initiated by the addition of the co-factor NADPH, giving a final NADPH concentration of 1 mM (Table 9). Samples […]
(§21) Plasma stability. The compounds were incubated separately at a concentration of 1 μM in +37°C pre-warmed pooled human plasma from commercial resources. The incubations were performed over a four-hour period with the first sample taken after addition of the compounds to plasma followed by a thorough mixing, with further sampling at 5, 10, and 30 minutes as well as 1,

[3] = Compounds in pre-precipitated (inactivated) plasma; assay type: in vitro ADME, human; details: for % found in incubation plasma at time 0.2 min: peak area in incubation plasma versus pre-precipitated plasma; for degradation in inactivated plasma: plasma pretreated with acetonitrile
Experimental: as §1, §2, §3, §4, §5, §6, §7, §8, §9, §10, §11, §12, §13, §14, §15
as §16, with “mass. The compound was identified with sub ppm mass accuracy and specific isotopic pattern of boron in its molecular structure.” for “mass.”
as §17, §18, §19, §20
Table S6 Time-dependent decline in concentration of five compounds for in vitro plasma stability in human plasma and […]
as §21, with “1, 2, and 4 hours. The samples were analyzed by LC-MS/MS using relative peak areas for the calculations of the time-dependent […]” for “1,”
Table S7 Comparison of peak area in incubation plasma after addition and mixing with pre-precipitated plasma. […]

[4] = Stability in simulated stomach acid (0.10 M HCl); details: 0.10 M HCl (simulated stomach acid)

CN(C)CCc1c[nH]c2cccc(OCc3ccccc3)c12 [Compound 3, 4-Benzyloxy-N,N-dimethyltryptamine]
solubility [1]: > 90 µM | half-life at 1 μM [2]: > 8 h | remaining at 12 s, 1 μM [2]: 100% | remaining at 5 min, 1 μM [2]: 103% | remaining at 10 min, 1 μM [2]: 103% | remaining at 0.5 h, 1 μM [2]: 105% | remaining at 1 h, 1 μM [2]: 111% | remaining at 2 h, 1 μM [2]: 110% | remaining at 4 h, 1 μM [2]: 107% | degradation in human plasma [2]: no degradation was observed | % found in incubation plasma at time 0.2 min [3]: 115% | degradation in inactivated plasma [3]: fairly stable | half-life at 5 mM [4]: > 167 h

CC(=O)Oc1cccc2[nH]cc(CCN(C)C)c12.O=C(O)/C=C/C(=O)O [Compound 4a, 4-acetoxy-N,N-dimethyltryptamine]
solubility [1]: 77 µM | half-life at 1 μM [2]: < 0.0833 h | remaining at 12 s, 1 μM [2]: 100% | remaining at 5 min, 1 μM [2]: 0.2% | remaining at 10 min, 1 μM [2]: 0.2% | remaining at 0.5 h, 1 μM [2]: 0.2% | remaining at 1 h, 1 μM [2]: 0.2% | remaining at 2 h, 1 μM [2]: 0.1% | remaining at 4 h, 1 μM [2]: 0.2% | degradation in human plasma [2]: almost no compound remained | % found in incubation plasma at time 0.2 min [3]: 9.8% | degradation in inactivated plasma [3]: heavily degraded | half-life at 5 mM [4]: > 167 h

CN(C)CCc1c[nH]c2cccc(OC(=O)C3CC3)c12.O=C(O)/C=C/C(=O)O [Compound 4g]
solubility [1]: > 90 µM | half-life at 1 μM [2]: < 0.0833 h | remaining at 12 s, 1 μM [2]: 100% | remaining at 5 min, 1 μM [2]: 1.5% | remaining at 10 min, 1 μM [2]: 0.1% | remaining at 0.5 h, 1 μM [2]: 0% | remaining at 1 h, 1 μM [2]: 0% | remaining at 2 h, 1 μM [2]: 0% | remaining at 4 h, 1 μM [2]: 0% | degradation in human plasma [2]: almost no compound remained | % found in incubation plasma at time 0.2 min [3]: 90% | degradation in inactivated plasma [3]: fairly stable | half-life at 5 mM [4]: > 167 h

CCOC(=O)Oc1cccc2[nH]cc(CCN(C)C)c12.O=C(O)/C=C/C(=O)O [Compound 4i]
solubility [1]: 88 µM | half-life at 1 μM [2]: < 0.0833 h | remaining at 12 s, 1 μM [2]: 100% | remaining at 5 min, 1 μM [2]: 0% | remaining at 10 min, 1 μM [2]: 0% | remaining at 0.5 h, 1 μM [2]: 0% | remaining at 1 h, 1 μM [2]: 0% | remaining at 2 h, 1 μM [2]: 0% | remaining at 4 h, 1 μM [2]: 0% | degradation in human plasma [2]: almost no compound remained | % found in incubation plasma at time 0.2 min [3]: 17% | degradation in inactivated plasma [3]: heavily degraded | half-life at 5 mM [4]: > 167 h

CN(C)CCc1c[nH]c2cccc(OP(=O)(O)O)c12 [Compound 8, 4-phosphoryloxy-N,N-dimethyltryptamine, reference compound]
half-life at 1 μM [2]: > 8 h | remaining at 12 s, 1 μM [2]: 100% | remaining at 5 min, 1 μM [2]: 135% | remaining at 0.5 h, 1 μM [2]: 130% | remaining at 1 h, 1 μM [2]: 122% | remaining at 2 h, 1 μM [2]: 127% | remaining at 4 h, 1 μM [2]: 122% | degradation in human plasma [2]: no degradation was observed | % found in incubation plasma at time 0.2 min [3]: 67% | degradation in inactivated plasma [3]: fairly stable | half-life at 5 mM [4]: > 167 h
